What was measured:
full NCI 60 cell panel = assay: NCI 60 Cell One-dose screen; assay type: cell-based, human; details: single high dose 10^−5 M, NCI 60 panel
Outline: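 Single dose of 10^−5 M across the full NCI-60 human tumour cell panel. Value is percent growth relative to no-drug control and to time-zero cell number: 0–100 means growth inhibition, 0 means no net growth, below 0 means lethality (−100 = all cells dead).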

CCRF-CEM = assay: NCI 60 five-dose screen CCRF-CEM; assay type: cell-based; details: Homo sapiens, five-dose
SR = assay: NCI 60 five-dose screen SR; assay type: cell-based, human; details: five-dose
HOP-92 = assay: NCI 60 five-dose screen HOP-92; assay type: cell-based; details: Homo sapiens, five-dose
NCI-H322M = assay: NCI 60 five-dose screen NCI-H322M; assay type: cell-based; details: Homo sapiens, five-dose
NCI-H522 = assay: NCI 60 five-dose screen NCI-H522; assay type: cell-based; details: Homo sapiens, five-dose
COLO 205 = assay: NCI 60 five-dose screen COLO 205; assay type: cell-based; details: Homo sapiens, five-dose
HCC-2998 = assay: NCI 60 five-dose screen HCC-2998; assay type: cell-based; details: Homo sapiens, five-dose
HCT-116 = assay: NCI 60 five-dose screen HCT-116; assay type: cell-based; details: Homo sapiens, five-dose
HT29 = assay: NCI 60 five-dose screen HT29; assay type: cell-based; details: Homo sapiens, HT-29, five-dose
KM12 = assay: NCI 60 five-dose screen KM12; assay type: cell-based; details: Homo sapiens, five-dose
SF-295 = assay: NCI 60 five-dose screen SF-295; assay type: cell-based; details: Homo sapiens, five-dose
U251 = assay: NCI 60 five-dose screen U251; assay type: cell-based; details: Homo sapiens, U-251, five-dose
M14 = assay: NCI 60 five-dose screen M14; assay type: cell-based; details: Homo sapiens, five-dose
UACC-257 = assay: NCI 60 five-dose screen UACC-257; assay type: cell-based; details: Homo sapiens, five-dose
UACC-62 = assay: NCI 60 five-dose screen UACC-62; assay type: cell-based; details: Homo sapiens, five-dose
IGROV1 = assay: NCI 60 five-dose screen IGROV1; assay type: cell-based; details: Homo sapiens, IGROV-1, five-dose
OVCAR-8 = assay: NCI 60 five-dose screen OVCAR-8; assay type: cell-based; details: Homo sapiens, five-dose
NCI/ADR-RES = assay: NCI 60 five-dose screen NCI/ADR-RES; assay type: cell-based; details: Homo sapiens, five-dose
A498 = assay: NCI 60 five-dose screen A498; assay type: cell-based; details: Homo sapiens, five-dose
ACHN = assay: NCI 60 five-dose screen ACHN; assay type: cell-based; details: Homo sapiens, five-dose
CAKI-1 = assay: NCI 60 five-dose screen CAKI-1; assay type: cell-based; details: Homo sapiens, five-dose
MCF7 = assay: NCI 60 five-dose screen MCF7; assay type: cell-based; details: Homo sapiens, five-dose
HS 578T = assay: NCI 60 five-dose screen HS 578T; assay type: cell-based; details: Homo sapiens, five-dose
[1] = read-out: LC50 (the source's name)
[2] = read-out: LC50 (the source's name) (converted)

## FC(F)(F)c1cc2c(Cl)ncnc2n1CCC1CCOCC1 [NUCC-0226674]
Full NCI 60 cell panel
  growth inhibition in the One-Dose Screen: significant growth inhibition
CCRF-CEM
  GI50: 1.41 µM
  IC50: 2.51 µM
  IC (TGI): 4.57 µM
CCRF-CEM; [1]
  CC50: ≥ 100 µM
SR; Homo sapiens
  GI50: 2.04 µM
  IC50: 3.72 µM
SR; Homo sapiens, read-out: LC50 (the source's name)
  CC50: ≥ 100 µM
SR
  TGI: 5.27 −log[M]
HOP-92
  GI50: 13.8 µM
  IC50: 34.7 µM
  IC (TGI): 32.4 µM
HOP-92; [2]
  CC50: 75.9 µM
NCI-H322M
  GI50: 3.16 µM
  IC50: 8.32 µM
  IC (TGI): 12.6 µM
NCI-H322M; [2]
  CC50: 35.5 µM
NCI-H522
  GI50: 1.7 µM
  IC50: 3.39 µM
  IC (TGI): 3.72 µM
NCI-H522; [2]
  CC50: 8.13 µM
COLO 205
  GI50: 16.2 µM
  IC50: 30.2 µM
  IC (TGI): 37.2 µM
COLO 205; [2]
  CC50: 85.1 µM
HCC-2998
  GI50: 1.62 µM
  IC50: 2.95 µM
  IC (TGI): 3.02 µM
HCC-2998; [2]
  CC50: 5.62 µM
HCT-116
  GI50: 2.34 µM
  IC50: 3.24 µM
  IC (TGI): 6.46 µM
HCT-116; [2]
  CC50: 28.8 µM
HT29
  GI50: 13.8 µM
  IC50: 21.4 µM
  IC (TGI): 44.7 µM
HT29; [2]
  CC50: ≥ 100 µM
KM12
  GI50: 16.2 µM
  IC50: 28.2 µM
  IC (TGI): 33.9 µM
KM12; [2]
  CC50: 70.8 µM
SF-295
  GI50: 13.8 µM
  IC50: 25.1 µM
  IC (TGI): 27.5 µM
SF-295; [2]
  CC50: 56.2 µM
U251
  GI50: 2.09 µM
  IC50: 3.24 µM
  IC (TGI): 5.62 µM
U251; [2]
  CC50: 28.2 µM
M14
  GI50: 3.72 µM
  IC50: 6.31 µM
  IC (TGI): 16.2 µM
M14; [2]
  CC50: 50.1 µM
UACC-257
  GI50: 3.55 µM
  IC50: 9.33 µM
  IC (TGI): 15.5 µM
UACC-257; [2]
  CC50: 52.5 µM
UACC-62
  GI50: 4.27 µM
  IC50: 8.13 µM
  IC (TGI): 15.8 µM
UACC-62; [2]
  CC50: 40.7 µM
IGROV1
  GI50: 1.78 µM
  IC50: 3.16 µM
  IC (TGI): 3.47 µM
IGROV1; [2]
  CC50: 6.76 µM
OVCAR-8
  GI50: 2.45 µM
  IC50: 3.63 µM
  IC (TGI): 7.41 µM
OVCAR-8; [2]
  CC50: 63.1 µM
NCI/ADR-RES
  GI50: 17 µM
  IC50: 30.9 µM
  IC (TGI): 35.5 µM
NCI/ADR-RES; [2]
  CC50: 72.4 µM
A498
  GI50: 16.2 µM
  IC50: 30.9 µM
  IC (TGI): 30.2 µM
A498; [2]
  CC50: 55 µM
ACHN
  GI50: 11 µM
  IC50: 18.6 µM
  IC (TGI): 26.3 µM
ACHN; [2]
  CC50: 61.7 µM
CAKI-1
  GI50: 14.5 µM
  IC50: 26.9 µM
  IC (TGI): 30.2 µM
CAKI-1; [2]
  CC50: 63.1 µM
MCF7
  GI50: 11.5 µM
  IC50: 19.1 µM
  IC (TGI): 36.3 µM
MCF7; [2]
  CC50: ≥ 100 µM
HS 578T
  GI50: 12 µM
  IC50: 70.8 µM
  IC (TGI): 45.7 µM
HS 578T; [1]
  CC50: ≥ 100 µM
